Read-outs that look alike come from different tables or passages of the source.
Legend:
[1] = biological target: T1, human androgen receptor (AR) (Homo sapiens, UniProt P10275); test: C2C12 AR/ARE reporter assay; type: cell-based; settings: mouse myoblast C2C12 cells, agonist mode, geometric mean of n=7; SD of about 0.08
T1 construct: expressed in transfected cells; host or cells: mouse myoblast C2C12 cells
T1 sequence (P10275 1-920): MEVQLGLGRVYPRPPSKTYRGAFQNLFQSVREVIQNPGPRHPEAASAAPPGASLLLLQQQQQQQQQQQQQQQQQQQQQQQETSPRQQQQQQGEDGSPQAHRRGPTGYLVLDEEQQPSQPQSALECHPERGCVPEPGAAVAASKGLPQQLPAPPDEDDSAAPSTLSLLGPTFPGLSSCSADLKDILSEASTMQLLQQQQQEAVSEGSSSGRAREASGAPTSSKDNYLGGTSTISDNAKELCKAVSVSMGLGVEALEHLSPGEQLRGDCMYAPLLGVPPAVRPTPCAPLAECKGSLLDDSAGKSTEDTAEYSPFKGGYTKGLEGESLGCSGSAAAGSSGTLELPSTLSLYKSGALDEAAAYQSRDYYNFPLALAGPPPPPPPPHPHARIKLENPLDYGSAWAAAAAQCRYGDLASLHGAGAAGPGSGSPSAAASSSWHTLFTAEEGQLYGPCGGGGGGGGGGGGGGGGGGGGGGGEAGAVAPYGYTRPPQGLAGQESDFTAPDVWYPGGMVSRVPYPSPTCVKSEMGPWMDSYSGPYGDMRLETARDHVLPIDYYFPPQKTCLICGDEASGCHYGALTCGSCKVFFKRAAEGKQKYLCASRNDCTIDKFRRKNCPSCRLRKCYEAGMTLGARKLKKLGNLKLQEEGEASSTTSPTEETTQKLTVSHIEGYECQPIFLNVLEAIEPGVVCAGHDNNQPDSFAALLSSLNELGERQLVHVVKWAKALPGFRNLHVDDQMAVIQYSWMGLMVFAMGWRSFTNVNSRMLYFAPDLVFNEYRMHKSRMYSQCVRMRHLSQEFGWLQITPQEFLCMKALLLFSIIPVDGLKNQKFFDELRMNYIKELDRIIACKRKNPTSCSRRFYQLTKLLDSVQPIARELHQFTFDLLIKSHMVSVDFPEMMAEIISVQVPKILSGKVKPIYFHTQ
Protocol: As an indicator of agonist activity in muscle tissue, the C2C12 AR/ARE reporter assay is performed. Briefly, mouse myoblast C2C12 cells are co-transfected using Fugene™ reagent. A reporter plasmid containing a GRE/ARE (glucocorticoid response element/androgen response element) and TK promoter upstream of the luciferase reporter cDNA, is transfected with a plasmid constitutively expressing human androgen receptor (AR) using viral CMV promoter. Cells are transfected in T150 cm^2 flasks in DMEM media with 4% charcoal stripped Fetal Bovine Serum (FBS). After a 5 hour incubation, transfected cells are trypsinized, plated in 96 well dishes in DMEM media containing 4% charcoal-stripped FBS, incubated for 2 h and then exposed to various concentrations of test compounds ranging from about 0.01 nM to 10 μM. […] Data is fit to a 4 parameter-fit logistics to determine EC50 values. The % efficacy is determined versus maximum stimulation obtained with 10 nM methyltrienolone.

[2] = tested on: castrated (GDX) male Sprague Dawley rats; test: In vivo model of efficacy and selectivity (castrated rats, tissue wet weights); settings: for mean normalized LA wet weight value / mean normalized bulbocavernous wet weight value / mean normalized prostate wet weight value: two week treatment, n=6, wet weight divided by body weight
Protocol: Eight week old male Sprague Dawley rats are castrated (gonadectomized or “GDX”) according to approved procedures and allowed to waste for eight weeks. Age-matched sham-operated […] are also prepared. Animals are housed in a temperature-controlled room (24° C.) with a reversed 12 hour light/dark cycle and water and food are available ad libitum.
Animals are randomized based on body weight prior to ascribing a test slot. Test compound in vehicle, or vehicle alone, is administered daily by subcutaneous injection to the castrated 16 week old rats (body weight about 380-400 g) using a conventional vehicle such as 5% DMSO/95% soybean oil. Sham operated rats treated with vehicle alone are used as a treatment positive controls, whereas the castrated rats treated only with vehicle are used as treatment negative control. A separate cohort of castrated animals are treated with testosterone as a comparator.
Test animals are dosed daily over a two or eight week timeframe with, for example, 0.1, 0.3, or 1.0 mg/kg per day of the compound of the present invention, or weekly with 10 mg/kg per week of testosterone (sesame oil vehicle) After the treatment period the animals are sacrificed and the wet weight of the levator ani (LA) muscle, the prostate and the bulbocavernous muscle from each animal is determined (after weighing, the bulbocavernous muscle may be flash frozen in liquid nitrogen for later use in measuring neuronal nitric oxide synthase mRNA, as described below). The wet weights are then normalized by dividing each individual wet weight by the body weight of the corresponding animal at the end of the study. The normalized values from the treatment animals are then compared to the normalized values from the castrated, vehicle-only control group or the sham group. As an indicator of tissue selective activity, the wet weight of the prostate from test animals may be similarly compared to the wet weight of the prostate from the control groups or the testosterone-treated comparator group.

[3] = Determination of plasma exposure; type: in vivo; settings: Sprague Dawley, rat, male rats, read-out: AUC (area under the plasma concentration time curve)
Protocol: Groups of male Sprague Dawley rats (6 animals/group) are dosed either orally (dosing volume of 1.25 ml/kg; vehicle of 5% DMSO/95% HEC) or subcutaneously (dosing volume of 2.5 ml/kg; vehicle of 5% DMSO/95% soybean oil) with 10 mg/kg p.o, 1 mg/kg s.c., 3 mg/kg s.c., or 10 mg/kg s.c. of the compound of Formula (I), once per day for two weeks. Starting on the second to last day of dosing, plasma samples are collected at 0.5, 2, 4, or 24 hours post-dosing (two animals are sampled at each time-point, with the same animals being used for the 0.5 and 24 hour time-point samples). The plasma concentration of the compound of Formula (I) is determined for each collected sample using LC/MS/MS (Sciex API-4000 LC/MS/MS system). The resulting concentrations are used to construct an area under the plasma concentration time curve (AUC) for each administered dose as an index of exposure. Following a protocol essentially as described above, the administered doses of the compound of Formula (I) produced the following AUC values: 10 mg/kg p.o: about 295,511 ng·hr./ml.; 1 mg/kg s.c.: about 38,963 ng·hr./ml.; 3 mg/kg s.c.: about 137,056 ng·hr./ml.; and 10 mg/kg s.c.: about 218,537 ng·hr./ml.

CC(C)OC(=O)N[C@H]1Cc2c(n(C[C@H]3OCC[C@@H]3O)c3ccc(C#N)cc23)C1 [compound of Formula (I), [(S)-7-Cyano-4-((2R,3S)-3-hydroxytetrahydrofuran-2-ylmethyl)-1,2,3,4-tetrahydrocyclopenta[b]indol-2-yl]-carbamic acid isopropyl ester]
EC50 [1]: ~200 pM
mean normalized LA wet weight value ([2]; 0.1 mg/kg per day s.c.): about 0.44
mean normalized bulbocavernous wet weight value ([2]; 0.1 mg/kg per day s.c.): about 0.77
mean normalized prostate wet weight value ([2]; 0.1 mg/kg per day s.c.): about 0.04
mean normalized LA wet weight value ([2]; 0.3 mg/kg per day s.c.): about 0.57
mean normalized bulbocavernous wet weight value ([2]; 0.3 mg/kg per day s.c.): about 1.29
mean normalized prostate wet weight value ([2]; 0.3 mg/kg per day s.c.): about 0.14
mean normalized LA wet weight value ([2]; 1.0 mg/kg per day s.c.): about 0.68
mean normalized bulbocavernous wet weight value ([2]; 1.0 mg/kg per day s.c.): about 1.41
mean normalized prostate wet weight value ([2]; 1.0 mg/kg per day s.c.): about 0.52
levator ani and bulbocavernous muscle weights in comparison to the castrated control group ([2]; 0.1-1.0 mg/kg per day s.c., two weeks): dose dependent increase
effect on prostate weight when compared to Sham control and testosterone treated animals ([2]; two weeks, tissue selectivity): decreased effect
AUC ([3]; po, 10 mg/kg p.o. once per day for two weeks, 5% DMSO/95% HEC): ~296 µg·h/mL
AUC ([3]; sc, 1 mg/kg s.c. once per day for two weeks, 5% DMSO/95% soybean oil): ~39 µg·h/mL
AUC ([3]; sc, 3 mg/kg s.c. once per day for two weeks, 5% DMSO/95% soybean oil): ~137 µg·h/mL
AUC ([3]; sc, 10 mg/kg s.c. once per day for two weeks, 5% DMSO/95% soybean oil): ~219 µg·h/mL

Source: patent US8183388B2, “Androgen receptor modulator and uses thereof” (Eli Lilly and Company, priority 2009, dated 2012)
